Assay results as given in patent US10730874B2 (Shire Human Genetic Therapies, Inc., priority 2018, dated 2020).
Where two headings read alike, the source gives them in different places.

Target: human activated kallikrein enzyme (plasma kallikrein) (Homo sapiens (Human), UniProt P03952)
Test: Inhibition of human activated plasma kallikrein, fluorogenic peptide substrate assay, 500 pM enzyme format
Assay type: biochemical
Settings: read-out: Primary Dose Response Assay: Average EC50
Procedure, shortened: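 Buffer 20 mM Tris pH 7.5, EDTA, NaCl, PEG-400, Triton X-100; 300 uM Pro-Phe-Arg-AMC; enzyme–inhibitor preincubation 30 min RT. Format one: 500 pM kallikrein, 10 min RT reaction; format two: 5 pM kallikrein, 18 h RT reaction. Fluorescence read at 460 nm (380 nm excitation).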

[1] = 500 pM activated kallikrein enzyme, 300 uM Pro-Phe-Arg-7-amido-4-methylcoumarin substrate, 30 min preincubation, 10 min at RT
[2] = comparative compounds (Table II), assay format with 500 pM (500 μM in the source) activated kallikrein

Sequence of human activated kallikrein enzyme (plasma kallikrein) (P03952 391-638): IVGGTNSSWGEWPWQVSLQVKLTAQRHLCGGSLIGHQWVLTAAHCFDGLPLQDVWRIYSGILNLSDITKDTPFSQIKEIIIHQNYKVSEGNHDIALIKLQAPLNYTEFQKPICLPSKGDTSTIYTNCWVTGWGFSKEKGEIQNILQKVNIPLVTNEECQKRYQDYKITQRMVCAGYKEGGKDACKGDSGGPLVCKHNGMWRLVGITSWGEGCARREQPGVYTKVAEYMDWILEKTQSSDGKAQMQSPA
Sequence of human activated kallikrein enzyme (plasma kallikrein) (P03952 20-390 partner): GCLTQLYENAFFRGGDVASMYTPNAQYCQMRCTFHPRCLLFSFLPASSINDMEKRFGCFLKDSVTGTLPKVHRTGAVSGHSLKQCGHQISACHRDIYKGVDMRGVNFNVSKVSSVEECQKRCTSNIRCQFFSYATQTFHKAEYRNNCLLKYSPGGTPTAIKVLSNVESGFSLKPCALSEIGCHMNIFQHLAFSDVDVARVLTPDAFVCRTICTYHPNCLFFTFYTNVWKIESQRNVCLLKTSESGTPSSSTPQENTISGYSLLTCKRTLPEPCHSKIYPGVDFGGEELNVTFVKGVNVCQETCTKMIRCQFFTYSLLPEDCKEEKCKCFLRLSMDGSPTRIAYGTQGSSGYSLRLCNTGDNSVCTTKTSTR

Row | SMILES | EC50 [1] [nM] | EC50 [2] [nM]
1 | O=C(NCc1ncn2ccc(Cl)cc12)c1ncn(Cc2cn3cc(C4CC4)ccc3n2)n1 [Example I-152, N-((7-chloroimidazo[1,5-a]pyridin-1-yl)methyl)-1-((6-cyclopropylimidazo[1,2-a]pyridin-2-yl)methyl)-1H-1,2,4-triazole-3-carboxamide] | < 1 | 
2 | C#Cc1c(C2CC2)ccc2nc(Cn3cc(C(=O)NCc4ncn5ccc(Cl)cc45)cn3)cn12 [Example I-79, N-((7-chloroimidazo[1,5-a]pyridin-1-yl)methyl)-1-((6-cyclopropyl-5-ethynylimidazo[1,2-a]pyridin-2-yl)methyl)-1H-pyrazole-4-carboxamide] | 1 to 10 | 
3 | O=C(NCc1ncn2ccc(Cl)c(F)c12)c1cnn(Cc2cn3cc(C4CC4)ccc3n2)c1 [Example I-147, N-((7-chloro-8-fluoroimidazo[1,5-a]pyridin-1-yl)methyl)-1-((6-cyclopropylimidazo[1,2-a]pyridin-2-yl)methyl)-1H-pyrazole-4-carboxamide] | < 1 | 
4 | O=C(O)CCc1nn(Cc2cn3cc(C4CC4)ccc3n2)cc1C(=O)NCc1ncn2ccc(Cl)cc12 [Example I-73, 3-(4-(((7-chloroimidazo[1,5-a]pyridin-1-yl)methyl)carbamoyl)-1-((6-cyclopropylimidazo[1,2-a]pyridin-2-yl)methyl)-1H-pyrazol-3-yl)propanoic acid] | < 1 | 
5 | O=C(NCc1ncn2ccc(Cl)c(F)c12)c1cn(Cc2cn3cc(C4CC4)ccc3n2)nn1 [Example I-148, N-((7-chloro-8-fluoroimidazo[1,5-a]pyridin-1-yl)methyl)-1-((6-cyclopropylimidazo[1,2-a]pyridin-2-yl)methyl)-1H-1,2,3-triazole-4-carboxamide] | < 1 | 
6 | O=C(NCc1ncn2ccc(Cl)cc12)c1cnn(Cc2cn3cc(C4CC4)c(Cl)cc3n2)c1 [Example I-24, 1-((7-chloro-6-cyclopropylimidazo[1,2-a]pyridin-2-yl)methyl)-N-((7-chloroimidazo[1,5-a]pyridin-1-yl)methyl)-1H-pyrazole-4-carboxamide] | 1 to 10 | 
7 | O=C(O)COc1cc(C2CC2)cn2cc(Cn3cc(C(=O)NCc4ncn5ccc(Cl)c(F)c45)nn3)nc12 [Example I-208, 2-((2-((4-(((7-chloro-8-fluoroimidazo[1,5-a]pyridin-1-yl)methyl)carbamoyl)-1H-1,2,3-triazol-1-yl)methyl)-6-cyclopropylimidazo[1,2-a]pyridin-8-yl)oxy)acetic acid] | < 1 | 
8 | O=C(O)CCc1cc(C2CC2)cn2cc(Cn3cc(C(=O)NCc4ncn5ccc(Cl)c(F)c45)nn3)nc12 [Example I-163b, 3-(2-((4-(((7-chloro-8-fluoroimidazo[1,5-a]pyridin-1-yl)methyl)carbamoyl)-1H-1,2,3-triazol-1-yl)methyl)-6-cyclopropylimidazo[1,2-a]pyridin-8-yl)propanoic acid] | < 1 | 
9 | O=C(NCc1ncn2ccc(Cl)c(F)c12)c1cnn(Cc2cn3cc(C4CC4)cc(C4COC4)c3n2)c1 [Example I-215, N-((7-chloro-8-fluoroimidazo[1,5-a]pyridin-1-yl)methyl)-1-((6-cyclopropyl-8-(oxetan-3-yl)imidazo[1,2-a]pyridin-2-yl)methyl)-1H-pyrazole-4-carboxamide] | < 1 | 
10 | O=C(NCc1ncn2ccc(Cl)c(F)c12)c1cn(Cc2cn3cc(C4CC4)cc(-n4cnnn4)c3n2)nn1 [Example I-179, N-((7-chloro-8-fluoroimidazo[1,5-a]pyridin-1-yl)methyl)-1-((6-cyclopropyl-8-(1H-tetrazol-1-yl)imidazo[1,2-a]pyridin-2-yl)methyl)-1H-1,2,3-triazole-4-carboxamide] | < 1 | 
11 | CC1(C)CC1c1ccn2cc(Cn3cc(C(=O)NCc4ncn5ccc(Cl)cc45)cn3)nc2c1 (stereo not shown) [Example I-41, N-((7-chloroimidazo[1,5-a]pyridin-1-yl)methyl)-1-((7-(2,2-dimethylcyclopropyl)imidazo[1,2-a]pyridin-2-yl)methyl)-1H-pyrazole-4-carboxamide] | 10 to 100 | 
12 | O=C(NCc1ncn2ccc(Br)cc12)c1nnc(Cc2cn3cc(C4CC4)ccc3n2)o1 [Example I-52, N-((7-bromoimidazo[1,5-a]pyridin-1-yl)methyl)-5-((6-cyclopropylimidazo[1,2-a]pyridin-2-yl)methyl)-1,3,4-oxadiazole-2-carboxamide] | < 1 | 
13 | O=C(NCc1ncn2ccc(Cl)c(F)c12)c1nnn(Cc2cn3nc(C4CC4)ccc3n2)n1 [Example I-289, N-((7-chloro-8-fluoroimidazo[1,5-a]pyridin-1-yl)methyl)-2-((6-cyclopropylimidazo[1,2-b]pyridazin-2-yl)methyl)-2H-tetrazole-5-carboxamide] | < 1 | 
14 | CC(C)(Oc1cc(C2CC2)cn2cc(Cn3cc(C(=O)NCc4ncn5ccc(Cl)c(F)c45)nn3)nc12)C(=O)O [Example I-212, 2-((2-((4-(((7-chloro-8-fluoroimidazo[1,5-a]pyridin-1-yl)methyl)carbamoyl)-1H-1,2,3-triazol-1-yl)methyl)-6-cyclopropylimidazo[1,2-a]pyridin-8-yl)oxy)-2-methylpropanoic acid] | < 1 | 
15 | CC(C)(C#N)Cc1cc(C2CC2)cn2cc(Cn3cc(C(=O)NCc4ncn5ccc(Cl)c(F)c45)cn3)nc12 [Example I-237, N-((7-chloro-8-fluoroimidazo[1,5-a]pyridin-1-yl)methyl)-1-((8-(2-cyano-2-methylpropyl)-6-cyclopropylimidazo[1,2-a]pyridin-2-yl)methyl)-1H-pyrazole-4-carboxamide] | < 1 | 
16 | O=C(NCc1nnc2ccc(Cl)cn12)c1cnn(Cc2cn3cc(C4CC4)ccc3n2)c1 [reference compound] |  | 100 to 2000
17 | Nc1c(C2CC2)ccc2nc(Cn3cc(C(=O)NCc4ncn5ccc(Cl)cc45)cn3)cn12 [Example I-88, 1-((5-amino-6-cyclopropylimidazo[1,2-a]pyridin-2-yl)methyl)-N-((7-chloroimidazo[1,5-a]pyridin-1-yl)methyl)-1H-pyrazole-4-carboxamide] | 1 to 10 | 
18 | CC(C)(Cc1cc(C2CC2)cn2cc(Cn3cc(C(=O)NCc4ncn5ccc(Cl)c(F)c45)nn3)nc12)C(=O)O [Example I-206, 3-(2-((4-(((7-chloro-8-fluoroimidazo[1,5-a]pyridin-1-yl)methyl)carbamoyl)-1H-1,2,3-triazol-1-yl)methyl)-6-cyclopropylimidazo[1,2-a]pyridin-8-yl)-2,2-dimethylpropanoic acid] | < 1 | 
19 | O=C(NCc1ncn2ccc(Cl)cc12)c1cnn(Cc2cn3cc(C4CC4)cc(N4CCCC4=O)c3n2)c1 [Example I-114, N-((7-chloroimidazo[1,5-a]pyridin-1-yl)methyl)-1-((6-cyclopropyl-8-(2-oxopyrrolidin-1-yl)imidazo[1,2-a]pyridin-2-yl)methyl)-1H-pyrazole-4-carboxamide] | < 1 | 
20 | O=C(NCc1ncn2ccc(Cl)c(F)c12)c1cn(Cc2cn3cc(C4CC4)cc(C4CCOC4=O)c3n2)nn1 (stereo not shown) [Example I-199, N-((7-chloro-8-fluoroimidazo[1,5-a]pyridin-1-yl)methyl)-1-((6-cyclopropyl-8-(2-oxotetrahydrofuran-3-yl)imidazo[1,2-a]pyridin-2-yl)methyl)-1H-1,2,3-triazole-4-carboxamide] | < 1 | 
21 | O=C(NCCc1ncn2ccc(Cl)cc12)c1cnn(Cc2cn3cc(C4CC4)ccc3n2)c1 [Example I-94, N-(2-(7-chloroimidazo[1,5-a]pyridin-1-yl)ethyl)-1-((6-cyclopropylimidazo[1,2-a]pyridin-2-yl)methyl)-1H-pyrazole-4-carboxamide] | 10 to 100 | 
22 | O=C(NCc1ncn2ccc(Cl)cc12)c1cn(Cc2cn3cc(C4CC4)ccc3n2)nc1C1COC1 [Example I-102, N-((7-chloroimidazo[1,5-a]pyridin-1-yl)methyl)-1-((6-cyclopropylimidazo[1,2-a]pyridin-2-yl)methyl)-3-(oxetan-3-yl)-1H-pyrazole-4-carboxamide] | < 1 | 
23 | CCOC(=O)C=Cc1cc(C2CC2)cn2cc(Cn3cc(C(=O)NCc4ncn5ccc(Cl)cc45)cn3)nc12 [Example I-100a, ethyl 3-(2-((4-(((7-chloroimidazo[1,5-a]pyridin-1-yl)methyl)carbamoyl)-1H-pyrazol-1-yl)methyl)-6-cyclopropylimidazo[1,2-a]pyridin-8-yl)acrylate] | < 1 | 
24 | CC(c1cn2cc(C3CC3)ccc2n1)n1cc(C(=O)NCc2ncn3ccc(Cl)cc23)nn1 (stereo not shown) [Example I-124, N-((7-chloroimidazo[1,5-a]pyridin-1-yl)methyl)-1-(1-(6-cyclopropylimidazo[1,2-a]pyridin-2-yl)ethyl)-1H-1,2,3-triazole-4-carboxamide] | 1 to 10 | 
25 | O=C(NCc1ncn2ccc(Cl)c(F)c12)c1cn(Cc2cn3cc(C4CC4)cc(Cc4nnco4)c3n2)nn1 [Example I-210b, 1-((8-((1,3,4-oxadiazol-2-yl)methyl)-6-cyclopropylimidazo[1,2-a]pyridin-2-yl)methyl)-N-((7-chloro-8-fluoroimidazo[1,5-a]pyridin-1-yl)methyl)-1H-1,2,3-triazole-4-carboxamide] | < 1 | 
26 | O=C(NCc1ncn2ccc(Cl)c(F)c12)c1cn(Cc2cn3cc(C4CC4)cc(F)c3n2)nn1 [Example I-171, N-((7-chloro-8-fluoroimidazo[1,5-a]pyridin-1-yl)methyl)-1-((6-cyclopropyl-8-fluoroimidazo[1,2-a]pyridin-2-yl)methyl)-1H-1,2,3-triazole-4-carboxamide] | < 1 | 
27 | O=C(NCc1nsc2ccc(Cl)cc12)c1cnn(Cc2cn3cc(C4CC4)ccc3n2)c1 [reference compound] |  | 10 to 100
28 | O=C(NCc1ncn2ccc(Br)cc12)c1cn(Cc2cn3cc(C4CC4)ccc3n2)nn1 [Example I-303, N-((7-bromoimidazo[1,5-a]pyridin-1-yl)methyl)-1-((6-cyclopropylimidazo[1,2-a]pyridin-2-yl)methyl)-1H-1,2,3-triazole-4-carboxamide] | < 1 | 
